The values that follow are results of earlier work, collected in US20130195797A1, “HIGH POTENCY FORMULATIONS OF VX-950” (VERTEX PHARMACEUTICALS INCORPORATED, priority 2012, published 2013).

The series deals with HCV. Particulars: clinical trials.

As to `CCC[C@H](NC(=O)[C@@H]1[C@H]2CCC[C@H]2CN1C(=O)[C@@H](NC(=O)[C@@H](NC(=O)c1cnccn1)C1CCCCC1)C(C)(C)C)C(=O)C(=O)NC1CC1` [VX-950], the “antiviral activity / effective therapy against HCV” value is “has shown antiviral activity”.
